Consider eight molecules from patent publication US20050131041A1, “Azole derivatives as antifungal agents” (priority 2002, published 2005).

One assay deals with Candida albicans Y-01-19. Briefly: MIC determination (NCCLS M27A/M38P broth dilution). The class given is cell-based. (In general: In broth dilution the organism is exposed to a series of concentrations in liquid medium.)
The test system of a further assay is Candida albicans 1122. Briefly: MIC determination (NCCLS M27A/M38P broth dilution). It counts as cell-based.
Another assay concerns Candida krusei 766.1. Nature of the assay: MIC determination (NCCLS M27A/M38P broth dilution). The class given is cell-based.
For assay [1], the system named is Candida parapsilosis 22019 (QC). Nature of the assay: MIC determination (NCCLS M27A/M38P broth dilution). The class given is cell-based.
The next assay concerns Candida glabrata 90030. Briefly: MIC determination (NCCLS M27A/M38P broth dilution). The class given is cell-based.
In assay [2] the test system is Paecilomyces variotti 22319(QC). Nature of the assay: MIC determination (NCCLS M27A/M38P broth dilution). It counts as cell-based.
Assay [3] has as its system Aspergillus fumigatus 1008. Nature of the assay: MIC determination (NCCLS M27A/M38P broth dilution). It counts as cell-based.
The test system of a further assay is Candida krusei 6258 (QC). Briefly: MIC determination (NCCLS M27A/M38P broth dilution). The class given is cell-based.
In assay [4] the test system is Aspergillus fumigatus Si-I. Briefly: MIC determination (NCCLS M27A/M38P broth dilution). It counts as cell-based.
Assay [5] has as its system Cryptococcus neoformans M 106. Nature of the assay: MIC determination (NCCLS M27A/M38P broth dilution). The class given is cell-based.
A further assay deals with Candida tropicalis 750. Nature of the assay: MIC determination (NCCLS M27A/M38P broth dilution). It counts as cell-based.
The next assay concerns Cryptococcus neoformans. The note with it: cited from earlier work.
The target of assay [6] is ergosterol P450DM (Candida albicans, UniProt P10613). The following applies: cited from earlier work.
Sequence of ergosterol P450DM (Candida albicans, UniProt P10613) (P10613 whole entry): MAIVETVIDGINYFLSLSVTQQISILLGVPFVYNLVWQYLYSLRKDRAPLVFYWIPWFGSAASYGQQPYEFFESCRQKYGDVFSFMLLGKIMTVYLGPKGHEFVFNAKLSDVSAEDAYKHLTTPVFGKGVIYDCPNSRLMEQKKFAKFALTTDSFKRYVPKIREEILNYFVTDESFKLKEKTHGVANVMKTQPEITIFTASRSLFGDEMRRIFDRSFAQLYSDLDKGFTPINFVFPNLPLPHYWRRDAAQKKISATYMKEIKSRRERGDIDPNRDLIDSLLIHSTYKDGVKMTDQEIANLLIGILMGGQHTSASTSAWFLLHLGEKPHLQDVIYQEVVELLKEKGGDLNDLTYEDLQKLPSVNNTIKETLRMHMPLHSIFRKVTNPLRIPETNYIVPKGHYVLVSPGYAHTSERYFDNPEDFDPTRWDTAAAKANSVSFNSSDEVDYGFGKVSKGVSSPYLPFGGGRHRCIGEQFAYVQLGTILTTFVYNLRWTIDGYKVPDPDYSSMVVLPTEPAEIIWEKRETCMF
The subject of assay [7] is ergosterol P450DM. The note with it: cited from earlier work.
The mark [8] stands for this setting: Paecilomyces variotti 22319(QC), RPMI 1640, MOPS pH 7.
Where [9] appears, read: Aspergillus fumigatus 1008, RPMI 1640, MOPS pH 7.
The mark [10] stands for this setting: Candida krusei 6258 (QC), RPMI 1640, MOPS pH 7.
[11] abbreviates: Aspergillus fumigatus Si-I, RPMI 1640, MOPS pH 7.
Where [12] appears, read: Y0119, RPMI 1640, MOPS pH 7, read-out: MIC.
[13] abbreviates: RPMI 1640, MOPS pH 7, read-out: MIC.
[14] abbreviates: Pichia kudriavzevii, RPMI 1640, MOPS pH 7, read-out: MIC.
[15] abbreviates: Nakaseomyces glabratus, RPMI 1640, MOPS pH 7, read-out: MIC.
The mark [16] stands for this setting: Paecilomyces variotti 22319(QC), RPMI 1640, MOPS pH 7, read-out: MIC.
The mark [17] stands for this setting: Pichia kudriavzevii, Candida krusei 6258 (QC), RPMI 1640, MOPS pH 7, read-out: MIC.
[18] abbreviates: M106, RPMI 1640, MOPS pH 7, read-out: MIC.
Setting [19] is: Aspergillus fumigatus 1008, RPMI 1640, MOPS pH 7, read-out: MIC.

Values after ≈ are worked out from the molar mass of the structure shown. Read-outs that look alike come from different tables or passages of the source. Bounds are passed on as bounds.

For the molecule `C[C@@H](n1ccn(-c2ccc(-n3ncnn3)cc2)c1=S)[C@](O)(Cn1cncn1)c1ccc(F)cc1F` [compound 5, 1-[(1R,2R)-2-(2,4-Difluorophenyl)-2-hydroxy-1-methyl-3-(1H-1,2,4-triazol-1-yl)propyl]-3-[4-(2H-2-tetrazolyl)phenyl]-2-(1H,3H)-thioimidazolone], the MIC (usually the lowest concentration found to suppress growth) was 0.5 µg/mL (≈ 1.01 µM) in the assay on Candida albicans Y-01-19 (RPMI 1640, MOPS pH 7); less than 0.00025 µg/mL against Candida albicans 1122 (RPMI 1640, MOPS pH 7); 0.5 µg/mL (≈ 1.01 µM) in the assay with Candida krusei 766.1 (RPMI 1640, MOPS pH 7); less than 0.00025 µg/mL in assay [1] (RPMI 1640, MOPS pH 7); 1 µg/mL (≈ 2.02 µM) against Candida glabrata 90030 (RPMI 1640, MOPS pH 7); “Long trailing effect” in [2] (setting [8]). Moreover, the MIC is 0.125 µg/mL (≈ 0.252 µM) in [3] (setting [9]); 0.06 µg/mL (≈ 0.121 µM) with Candida krusei 6258 (QC) (setting [10]); 0.016 µg/mL (≈ 0.0323 µM) in assay [4] (setting [11]); less than 0.00025 µg/mL in assay [5] (RPMI 1640, MOPS pH 7); less than 0.00025 µg/mL against Candida tropicalis 750 (RPMI 1640, MOPS pH 7).

Consider `OC(Cn1cncn1)(Cn1cncn1)c1ccc(F)cc1F` [FLU, FLUCONAZOLE], for which the MIC with Candida albicans Y-01-19 (setting [12]) was determined as 16 µg/mL (≈ 52.2 µM); in the assay on Candida albicans 1122 (setting [13]), 0.5 µg/mL (≈ 1.63 µM); in the assay on Candida krusei 766.1 (setting [14]), 64 µg/mL (≈ 209 µM); in assay [1] (setting [13]), 2 µg/mL (≈ 6.53 µM); in the assay with Candida glabrata 90030 (setting [15]) it was 16 µg/mL (≈ 52.2 µM); in assay [2] (setting [16]), 2 µg/mL (≈ 6.53 µM). Further, the minimum inhibitory concentration (MIC) is more than 128 µg/mL in assay [3] (Aspergillus fumigatus, 1008, pH 7); 32 µg/mL (≈ 104 µM) in the assay with Candida krusei 6258 (QC) (setting [17]); more than 128 µg/mL in assay [4] (Aspergillus fumigatus, pH 7); 4 µg/mL (≈ 13.1 µM) in [5] (setting [18]); 2 µg/mL (≈ 6.53 µM) with Candida tropicalis 750 (setting [13]).

On to `C[C@@H]1[C@H](O)[C@@H](C)/C=C/C=C/C=C/C=C/C=C/C=C/C=C/[C@H](O[C@@H]2O[C@H](C)[C@@H](O)[C@H](N)[C@@H]2O)C[C@@H]2O[C@](O)(C[C@@H](O)C[C@@H](O)[C@H](O)CC[C@@H](O)C[C@@H](O)CC(=O)O[C@H]1C)C[C@H](O)[C@H]2C(=O)O` [AMB, AMPHOTERICIN B], for which the minimum inhibitory concentration (MIC) is 0.25 µg/mL (≈ 0.271 µM) with Candida albicans Y-01-19 (RPMI 1640, MOPS pH 7); 0.25 µg/mL (≈ 0.271 µM) with Candida albicans 1122 (RPMI 1640, MOPS pH 7); 0.25 µg/mL (≈ 0.271 µM) with Candida krusei 766.1 (RPMI 1640, MOPS pH 7); 0.125 µg/mL (≈ 0.135 µM) in [1] (RPMI 1640, MOPS pH 7); 0.5 µg/mL (≈ 0.541 µM) with Candida glabrata 90030 (RPMI 1640, MOPS pH 7); 0.25 µg/mL (≈ 0.271 µM) in assay [2] (setting [8]). The minimum inhibitory concentration (MIC) amounted to 0.25 µg/mL (≈ 0.271 µM) in assay [3] (setting [9]); 0.25 µg/mL (≈ 0.271 µM) against Candida krusei 6258 (QC) (setting [10]); 0.5 µg/mL (≈ 0.541 µM) in assay [4] (setting [11]); 0.06 µg/mL (≈ 0.0649 µM) in [5] (RPMI 1640, MOPS pH 7); 0.125 µg/mL (≈ 0.135 µM) against Candida tropicalis 750 (RPMI 1640, MOPS pH 7).

With `C[C@@H](n1ccn(-c2ccc(-n3cnnn3)cc2)c1=S)[C@](O)(Cn1cncn1)c1ccc(F)cc1F` [compound 4, 1-[(1R,2R)-2-(2,4-Difluorophenyl)-2-hydroxy-1-methyl-3-(1H-1,2,4-triazol-1-yl)propyl]-3-[4-(1H-1-tetrazolyl)phenyl]-2-(1H,3H)-thioimidazolone], the MIC with Candida albicans Y-01-19 (RPMI 1640, MOPS pH 7) is 0.25 µg/mL (≈ 0.505 µM); in the assay with Candida albicans 1122 (RPMI 1640, MOPS pH 7), 0.06 µg/mL (≈ 0.121 µM); in the assay on Candida krusei 766.1 (RPMI 1640, MOPS pH 7) it was 0.25 µg/mL (≈ 0.505 µM); in assay [1] (RPMI 1640, MOPS pH 7) it was less than 0.00025 µg/mL; against Candida glabrata 90030 (RPMI 1640, MOPS pH 7), 0.06 µg/mL (≈ 0.121 µM); in assay [2] (setting [8]), 0.016 µg/mL (≈ 0.0323 µM). Moreover, the minimal inhibitory concentration (MIC) in assay [3] (setting [9]) was found to be 0.25 µg/mL (≈ 0.505 µM); in the assay on Candida krusei 6258 (QC) (setting [10]), 0.25 µg/mL (≈ 0.505 µM); in assay [4] (setting [11]), 0.25 µg/mL (≈ 0.505 µM); in assay [5] (RPMI 1640, MOPS pH 7) it was 0.03 µg/mL (≈ 0.0605 µM); against Candida tropicalis 750 (RPMI 1640, MOPS pH 7), 0.004 µg/mL (≈ 0.00807 µM).

As for `C[C@@H](n1ccn(-c2ccc(OCC(F)(F)C(F)F)cc2)c1=S)[C@](O)(Cn1cncn1)c1ccc(F)cc1F` [compound 6, 1-[(1R,2R)-2-(2,4-Difluorophenyl)-2-hydroxy-1-methyl-3-(1H-1,2,4-triazol-1-yl)propyl]-3-[4-(2,2,3,3-tetrafluoropropoxy)phenyl]-2-(1H,3H)-thioimidazolone], the MIC in the assay with Candida albicans Y-01-19 (RPMI 1640, MOPS pH 7) is 0.5 µg/mL (≈ 0.897 µM); against Candida albicans 1122 (RPMI 1640, MOPS pH 7), less than 0.00025 µg/mL; in the assay on Candida krusei 766.1 (RPMI 1640, MOPS pH 7) it was 0.5 µg/mL (≈ 0.897 µM); in assay [1] (RPMI 1640, MOPS pH 7), less than 0.00025 µg/mL; against Candida glabrata 90030 (RPMI 1640, MOPS pH 7), 2 µg/mL (≈ 3.59 µM); in assay [2] (setting [8]) it was “Long trailing effect”. The minimum inhibitory concentration (MIC) in [3] (setting [9]) is 0.125 µg/mL (≈ 0.224 µM); against Candida krusei 6258 (QC) (setting [10]), 0.125 µg/mL (≈ 0.224 µM); in [4] (setting [11]) it was 0.016 µg/mL (≈ 0.0287 µM); in assay [5] (RPMI 1640, MOPS pH 7), less than 0.00025 µg/mL; in the assay on Candida tropicalis 750 (RPMI 1640, MOPS pH 7), less than 0.00025 µg/mL.

As for `CCC(C)n1ncn(-c2ccc(N3CCN(c4ccc(OCC5COC(Cn6cncn6)(c6ccc(Cl)cc6Cl)O5)cc4)CC3)cc2)c1=O` (centres unmarked) [ITRA, ITRACONAZOLE], the MIC with Candida albicans Y-01-19 (setting [12]) came to 0.25 µg/mL (≈ 0.354 µM); with Candida albicans 1122 (setting [13]) it was 0.016 µg/mL (≈ 0.0227 µM); in the assay on Candida krusei 766.1 (setting [14]), 0.25 µg/mL (≈ 0.354 µM); in assay [1] (setting [13]), 0.03 µg/mL (≈ 0.0425 µM); in the assay on Candida glabrata 90030 (setting [15]), 0.5 µg/mL (≈ 0.709 µM); in assay [2] (Paecilomyces, pH 7), 0.125 µg/mL (≈ 0.177 µM). Further, the minimal inhibitory concentration (MIC) was determined as 0.25 µg/mL (≈ 0.354 µM) in assay [3] (setting [19]); 0.125 µg/mL (≈ 0.177 µM) against Candida krusei 6258 (QC) (Pichia kudriavzevii, pH 7); 0.125 µg/mL (≈ 0.177 µM) in assay [4] (Aspergillus fumigatus, pH 7); 0.03 µg/mL (≈ 0.0425 µM) in assay [5] (setting [18]); 0.004 µg/mL (≈ 0.00567 µM) with Candida tropicalis 750 (setting [13]).

In the case of `CC[C@H](C)C[C@H](C)CCCCCCCCC(=O)N[C@H]1C[C@@H](O)[C@@H](NCCN)NC(=O)[C@@H]2[C@@H](O)CCN2C(=O)[C@H]([C@H](O)CCN)NC(=O)[C@H]([C@H](O)[C@@H](O)c2ccc(O)cc2)NC(=O)[C@@H]2C[C@@H](O)CN2C(=O)[C@H]([C@@H](C)O)NC1=O` [caspofungin, Caspofungin], in the assay on Cryptococcus neoformans, the “activity against Cryptococcus neoformans” value is listed as “not active”.

Regarding `C[C@@H](c1ncncc1F)[C@](O)(Cn1cncn1)c1ccc(F)cc1F` [VORI, VORICONAZOLE], the MIC was 0.5 µg/mL (≈ 1.43 µM) with Candida albicans Y-01-19 (setting [12]); 0.16 µg/mL (≈ 0.458 µM) in the assay on Candida albicans 1122 (setting [13]); 1 µg/mL (≈ 2.86 µM) in the assay with Candida krusei 766.1 (setting [14]); 0.03 µg/mL (≈ 0.0859 µM) in [1] (setting [13]); 1 µg/mL (≈ 2.86 µM) in the assay with Candida glabrata 90030 (setting [15]); 0.06 µg/mL (≈ 0.172 µM) in [2] (setting [16]). Further, the minimal inhibitory concentration (MIC) in [3] (setting [19]) was found to be 0.25 µg/mL (≈ 0.716 µM); in the assay with Candida krusei 6258 (QC) (setting [17]), 0.25 µg/mL (≈ 0.716 µM); in assay [4] (Aspergillus fumigatus Si-I, RPMI 1640, MOPS pH 7, read-out: MIC), 0.25 µg/mL (≈ 0.716 µM); in assay [5] (setting [18]) it was 0.06 µg/mL (≈ 0.172 µM); with Candida tropicalis 750 (setting [13]), 0.016 µg/mL (≈ 0.0458 µM). Moreover, the “greater inhibition of ergosterol P450DM compared to fluconazole” value at ergosterol P450DM [6] was 1.6 fold; in the assay with ergosterol P450DM [7], 160 fold.
